Key:
[1] = system: control sera (pooled serum of ten healthy LUMC hospital workers; commercial negative donor pooled serum from the Dutch bloodbank); assay type: binding, human; set-up: Binding of Control serum LUMC to linear peptides / Binding of Control serum Blood-bank to linear peptides / Binding of Control serum LUMC to looped peptides / Binding of Control Serum Blood-Bank to Looped peptides / Binding of Control serum LUMC to linear peptides of the protein M of SARS-CoV Urbani / Binding of Control serum Blood-bank to linear peptides of the protein M of SARS-CoV Urbani / Binding of Control serum LUMC to looped peptides of the protein M of SARS-CoV Urbani / Binding of Control Serum Blood-Bank to Looped peptides of the protein M of SARS-CoV Urbani: unit not given here
[2] = system: rabbit serum obtained by immunizing a rabbit with the SARS-CoV strain Frankfurt 1; assay type: binding; set-up: Binding of a rabbit serum to linear peptides / Binding of a rabbit serum to looped peptides / Rabbit serum linear peptides / Rabbit serum looped peptides / Binding of a rabbit serum to linear peptides of protein N of SARS-CoV Urbani (Rabbit serum linear peptides) / Binding of a rabbit serum to looped/cyclic peptides of protein N of SARS-CoV Urbani (Rabbit serum looped peptides): unit not given here

Sequence | Binding of Control Serum Blood-Bank to Looped peptides [1] | Binding of Control serum Blood-bank to linear peptides [1] | Binding of Control serum LUMC to linear peptides [1] | Binding of Control serum LUMC to looped peptides [1] | Binding of a rabbit serum to linear peptides [2] | Binding of a rabbit serum to looped peptides [2] | Rabbit serum linear peptides [2] | Rabbit serum looped peptides [2] | Binding of Control Serum Blood-Bank to Looped peptides of the protein M of SARS-CoV Urbani [1] | Binding of Control serum Blood-bank to linear peptides of the protein M of SARS-CoV Urbani [1] | Binding of Control serum LUMC to linear peptides of the protein M of SARS-CoV Urbani [1] | Binding of Control serum LUMC to looped peptides of the protein M of SARS-CoV Urbani [1] | Binding of Control Serum Blood-Bank to Looped peptides of the protein X3 of SARS-CoV Urbani [1] | Binding of Control serum Blood-bank to linear peptides of the protein X3 of SARS-CoV Urbani [1] | Binding of Control serum LUMC to linear peptides of the protein X3 of SARS-CoV Urbani [1] | Binding of Control serum LUMC to looped peptides of the protein X3 of SARS-CoV Urbani [1] | Recognition of the peptide by the rabbit serum [2]
GVKDYVVVHGYFTEV | 1.1 | 0.5 | 0.7 | 1.3 | 0.1 | 0.7 |  |  |  |  |  |  |  |  |  |  | 
HNYDYCIPYNSVTDT | 0.7 | 0.3 | 0.4 | 0.6 | 0.1 | 0.5 |  |  |  |  |  |  |  |  |  |  | 
HPLADNKFALTCTST | 0.8 | 0.7 | 0.6 | 0.9 |  |  | 0.5 | 0.1 |  |  |  |  |  |  |  |  | 
HSGVKDYVVVHGYFT | 2.2 | 0.7 | 0.8 | 2.3 | 0.1 | 0.6 |  |  |  |  |  |  |  |  |  |  | 
HTMVQTCTPNVTINC | 0.8 | 0.9 | 0.7 | 0.6 |  |  | 0.4 | 0.2 |  |  |  |  |  |  |  |  | 
IGGYSEDRHSGVKDY | 0.7 | 0.4 | 0.5 | 0.6 | 0.1 | 0.6 |  |  |  |  |  |  |  |  |  |  | 
IGNYKLNTDHAGSND |  |  |  |  |  |  | 0.5 | 0.0 | 0.7 | 0.5 | 0.3 | 0.8 |  |  |  |  | 
IIMRTFRIAIWNLDV |  |  |  |  |  |  | 0.3 | 0.5 |  |  |  |  | 0.9 | 0.9 | 0.7 | 0.6 | 
IISSIVRQLFKPLTK |  |  |  |  |  |  | 0.6 | 0.4 |  |  |  |  | 0.6 | 0.8 | 0.8 | 0.6 | 
ILIIIMRTFRIAIWN |  |  |  |  |  |  | 0.5 | 0.6 |  |  |  |  | 0.7 | 0.8 | 0.5 | 0.3 | 
ISTPKLKEDYQIGGY | 0.7 | 0.7 | 1.0 | 0.5 | 0.1 | 0.4 |  |  |  |  |  |  |  |  |  |  | 
ITAQPVKIDNASPAS | 0.5 | 0.7 | 0.7 | 0.5 | 0.1 | 0.3 |  |  |  |  |  |  |  |  |  |  | 
IVNVSLVKPTVYVYS | 0.9 | 0.7 | 0.4 | 0.9 | 0.5 | 0.5 |  |  |  |  |  |  |  |  |  |  | 
KEDYQIGGYSEDRHS | 0.3 | 0.5 | 0.5 | 0.4 | 0.1 | 0.5 |  |  |  |  |  |  |  |  |  |  | 
KIDNASPASTVHATA | 0.6 | 0.6 | 0.7 | 0.7 | 0.2 | 0.3 |  |  |  |  |  |  |  |  |  |  | 
KKNYSELDDEEPMEL |  |  |  |  |  |  | 0.1 | 0.0 |  |  |  |  | 0.6 | 0.5 | 0.4 | 0.9 | 
KLGASQRVGTDSGFA |  |  |  |  |  |  | 0.1 | 0.1 | 0.8 | 0.9 | 0.9 | 0.9 |  |  |  |  | 
KLVVILRIGTQVLKT | 0.7 | 0.8 | 0.4 | 0.6 | 0.5 | 0.5 |  |  |  |  |  |  |  |  |  |  | 
LADNKFALTCTSTHF | 0.7 | 0.7 | 0.7 | 0.7 |  |  | 0.5 | 0.5 |  |  |  |  |  |  |  |  | 
LFKPLTKKNYSELDD |  |  |  |  |  |  | 0.3 | 0.4 |  |  |  |  | 0.8 | 0.7 | 0.6 | 0.9 | 
LGASQRVGTDSGFAA |  |  |  |  |  |  | 0.3 | 0.1 | 0.6 | 0.9 | 0.5 | 0.8 |  |  |  |  | 
LGSITAQPVKIDNAS | 0.4 | 0.4 | 0.5 | 0.4 | 0.3 | 0.4 |  |  |  |  |  |  |  |  |  |  | 
LKEDYQIGGYSEDRH | 0.4 | 0.5 | 0.5 | 0.5 | 0.1 | 0.7 |  |  |  |  |  |  |  |  |  |  | 
LNTDHAGSNDNIALL |  |  |  |  |  |  | 0.0 | 0.3 | 0.7 | 0.6 | 0.7 | 0.9 |  |  |  |  | 
LRIGTQVLKTMSLYM | 0.7 | 0.6 | 0.4 | 0.7 | 0.4 | 0.4 |  |  |  |  |  |  |  |  |  |  | 
LRMAGHPLGRCDIKD |  |  |  |  |  |  | 0.3 | 0.1 | 0.8 | 0.7 | 0.5 | 0.8 |  |  |  |  | 
LSYYKLGASQRVGTD |  |  |  |  |  |  | 0.2 | 0.3 | 0.7 | 0.8 | 0.8 | 0.7 |  |  |  |  | 
LVKDPPNVQIHTIDG | 0.6 | 0.4 | 0.4 | 0.7 | 0.1 | 0.5 |  |  |  |  |  |  |  |  |  |  | 
LVKPTVYVYSRVKNL | 0.7 | 0.8 | 0.4 | 0.7 | 0.6 | 0.9 |  |  |  |  |  |  |  |  |  |  | 
MADNGTITVEELKQL |  |  |  |  |  |  |  |  | 0.4 | 0.5 | 0.6 | 0.6 |  |  |  |  | recognized
